For this assay, the target named is T1, Cbl-b (truncated variant, UniProt number Q13191) (Homo sapiens, UniProt Q13191).
T1 construct: made in house
As to the kind of experiment: Cbl-b activity assay (TR-FRET, interaction of Cbl-b with UbcH5B-Ub). In kind it is biochemical. The text has this:
As described in Biological Example 1A, a Cbl-b activity assay (Cbl-b inhibition assay) used to measure the IC50 values for Cbl-b inhibition uses a mixture comprising candidate compound, Cbl-b (truncated, with an Avitag, and biotinylated), a fluorescently-labeled E2 enzyme UbcH5B labelled with ubiquitin conjugated to BODIPY-fluorescein (UbcH5B-Ub), streptavidin-terbium, and assay buffer. In one embodiment, the Cbl-b activity assay (Cbl-b inhibition assay) used to measure IC50 for inhibition of Cbl-b uses the conditions described in Biological Example 1A with 12 nM Cbl-b. […] In another embodiment, the Cbl-b activity assay (Cbl-b inhibition assay) used to measure IC50 for inhibition of Cbl-b uses the conditions described in Biological Example 1B, with candidate compound, 0.125 nM Cbl-b (truncated, with an avitag, and biotinylated), fluorescently labelled inhibitor probe, and assay buffer. Displacement of the inhibitor probe indicates Cbl-b activity.
Candidate compounds isolated from screening assays were evaluated for their ability to bind and inhibit Cbl-b, an E3 ubiquitin-protein ligase.
The ability of candidate compounds to inhibit Cbl-b activity was measured by monitoring the interaction of Cbl-b with UbcH5B-Ub in the presence of the candidate compound. A truncated variant of Cbl-b (UniProt number Q13191; SEQ ID NO:1) containing an Avitag at its N-terminus was co-expressed with BirA biotin ligase and purified using a standard protocol (see Dou et al., Nature Structural and Molecular Biology 8: 982-987, 2013; Avidity LLC).
Fluorescently labeled UbcH5B-Ub was prepared by conjugating ubiquitin (Ub), labeled at its N-terminus with Bodipy-Fluorescein, to UbcH5B, an E2 enzyme, harboring a cysteine to lysine mutation at position 85. This mutation is similar to a mutation that was previously reported (see Dou et al., Nature Structural and Molecular Biology 8: 982-987, 2013). Cbl-b activity assays were performed in a 384-well plate at room temperature in a 10 μL reaction volume by pre-incubating 12 nM Cbl-b (final concentration) in an assay buffer containing 50 mM HEPES pH 7.0, 100 mM NaCl, 0.01% Triton X-100, 0.01% BSA, and 1 mM DTT in the presence of a candidate compound in 1% DMSO (final concentration, High Conditions) for one hour. After incubation in the presence of the candidate compound, the plate was incubated for an additional 1.5 hours in the presence of 60 nM Src kinase with 1 mM ATP and 5 mM MgCl2 (final concentrations). Alternatively, compounds were tested as described above with assay buffer containing 50 mM NaCl instead of 100 mM NaCl and 30 nM Src kinase instead of 60 nM Src kinase (Low Conditions). Src kinase was prepared as previously described (see Kobashigawa et al., Proc Natl Acad Sci USA, 108: 20579-20584, 2011). […] The plate was incubated for one hour. Following the one hour incubation, the plates were read for TR-FRET signal at 520/620 nm using Envision plate reader (Perkin Elmer). The presence of a FRET signal that indicated Cbl-b was not inhibited by the compound candidate. The absence of a FRET signal indicated Cbl-b was inhibited by the compound candidate and was therefore a Cbl-b inhibitor.
The resulting data for the Cbl-b activity assays were analyzed using standard methods to report the IC50 values of the tested compounds (Tables 3-4). The resulting data for the Cbl-b binding assay was solvent corrected and double-referenced prior to analysis. All data were globally fit to a steady-state affinity and kinetic binding model where applicable. Compounds were ranked into bins A through D as follows for IC50: A indicates <0.1 μM, B indicates 0.1 μM≤IC50<1 μM, C indicates 1 μM≤IC50<5 μM, and D indicates 5 μM≤IC50.

The mark [1] stands for this setting: Biological Example 1A, low or high conditions not stated, read-out: IC50 values in the Cbl-b inhibition assay of Biological Example 1A.
Setting [2] is: high conditions: 100 mM NaCl, 60 nM Src kinase, 12 nM Cbl-b, read-out: Cbl-b activity IC50.
Setting [3] is: low conditions: 50 mM NaCl, 30 nM Src kinase, 12 nM Cbl-b, read-out: Cbl-b activity IC50.

Like-named read-outs stand apart in the source and are kept apart here.

T1 sequence (Q13191 36-427): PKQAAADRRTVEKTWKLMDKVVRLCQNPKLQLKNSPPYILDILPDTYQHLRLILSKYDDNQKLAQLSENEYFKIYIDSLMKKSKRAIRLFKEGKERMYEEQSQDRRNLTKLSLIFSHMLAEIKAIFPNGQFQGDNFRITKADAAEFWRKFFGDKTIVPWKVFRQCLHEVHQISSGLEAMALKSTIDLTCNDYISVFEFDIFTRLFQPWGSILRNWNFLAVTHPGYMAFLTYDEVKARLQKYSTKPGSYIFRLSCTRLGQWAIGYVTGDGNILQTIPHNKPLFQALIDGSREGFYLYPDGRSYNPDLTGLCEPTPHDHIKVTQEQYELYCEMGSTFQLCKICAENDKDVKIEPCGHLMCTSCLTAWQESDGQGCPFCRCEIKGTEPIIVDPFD

For `C[C@H](Cc1nncn1C)c1cccc(NC(=O)N2C[C@H](CO)[C@@H](C)C2)c1` (relative stereo) [Example 17, (3R*,4R*)-3-(hydroxymethyl)-4-methyl-N-(3-((R)-1-(4-methyl-4H-1,2,4-triazol-3-yl)propan-2-yl)phenyl)pyrrolidine-1-carboxamide], the IC50 (usually the concentration needed to halve the response being measured) is 1 to 5 µM under setting [1] and 1 to 5 µM under setting [2].

As for `CC(Sc1nncn1C)c1cccc(C(=O)Nc2cccc(C(F)(F)F)n2)c1` (stereo not shown) [Example 1, 3-(1-((4-methyl-4H-1,2,4-triazol-3-yl)thio)ethyl)-N-(6-(trifluoromethyl)pyridin-2-yl)benzamide], the IC50 is, setting by setting: under setting [1], at least 5 µM; under setting [3], at least 5 µM.

For `C[C@H](Sc1nncn1C)c1cccc(NC(=O)Nc2ccccn2)c1` [Example 2, (S)-1-(3-(1-((4-methyl-4H-1,2,4-triazol-3-yl)thio)ethyl)phenyl)-3-(pyridin-2-yl)urea], the IC50 lay within 0.1 to 1 µM under setting [1] and 0.1 to 1 µM under setting [3].

With `C[C@H](Sc1nncn1C)c1cccc(NC(=O)Nc2cccc(C(F)(F)F)n2)c1` [Example 3, (S)-1-(3-(1-((4-methyl-4H-1,2,4-triazol-3-yl)thio)ethyl)phenyl)-3-(6-(trifluoromethyl)pyridin-2-yl)urea], the IC50 by setting is: under setting [1], 0.1 to 1 µM; under setting [2], 0.1 to 1 µM.

Turning to `COc1cccc(NC(=O)Nc2cccc([C@H](C)Sc3nncn3C)c2)n1` [Example 4, (S)-1-(6-methoxypyridin-2-yl)-3-(3-(1-((4-methyl-4H-1,2,4-triazol-3-yl)thio)ethyl)phenyl)urea], the IC50 under setting [2] is at least 5 µM.

In the case of `C[C@H](Sc1nncn1C)c1cccc(NC(=O)NCc2ccccc2)c1` [Example 5, (S)-1-benzyl-3-(3-(1-((4-methyl-4H-1,2,4-triazol-3-yl)thio)ethyl)phenyl)urea], the IC50 under setting [3] was at least 5 µM.

In the case of `C[C@H](Sc1nncn1C)c1cccc(NC(=O)Nc2ccccc2)c1` [Example 6, (S)-1-(3-(1-((4-methyl-4H-1,2,4-triazol-3-yl)thio)ethyl)phenyl)-3-phenylurea], the IC50 under setting [2] is at least 5 µM.

Take `C[C@H](Sc1nncn1C)c1cccc(NC(=O)N2CCc3ccccc32)c1` [Example 7, (S)—N-(3-(1-((4-methyl-4H-1,2,4-triazol-3-yl)thio)ethyl)phenyl)indoline-1-carboxamide]: the IC50 under setting [2] is at least 5 µM.

Turning to `C[C@H](Sc1nncn1C)c1cccc(NC(=O)N2CCCc3ccccc32)c1` [Example 8, (S)—N-(3-(1-((4-methyl-4H-1,2,4-triazol-3-yl)thio)ethyl)phenyl)-3,4-dihydroquinoline-1(2H)-carboxamide], the IC50 under setting [2] is at least 5 µM.

With `C[C@H](Cc1nncn1C)c1cccc(NC(=O)N2CCCc3cccnc32)c1` [Example 9, (R)—N-(3-(1-(4-methyl-4H-1,2,4-triazol-3-yl)propan-2-yl)phenyl)-3,4-dihydro-1,8-naphthyridine-1(2H)-carboxamide], the IC50 fell in the range of 0.1 to 1 µM under setting [1] and 0.1 to 1 µM under setting [2].

In the case of `C[C@H](Cc1nncn1C)c1cccc(NC(=O)N2CCOc3cccnc32)c1` [Example 10, (R)—N-(3-(1-(4-methyl-4H-1,2,4-triazol-3-yl)propan-2-yl)phenyl)-2,3-dihydro-4H-pyrido[3,2-b][1,4]oxazine-4-carboxamide], the IC50 was under 0.1 µM under setting [1] and under 0.1 µM under setting [2].

As to `COC(=O)C1(C(F)(F)F)CCN(C(=O)Nc2cccc([C@H](C)Cc3nncn3C)c2)C1` (stereo partly drawn) [Example 11, Methyl 1-((3-((R)-1-(4-methyl-4H-1,2,4-triazol-3-yl)propan-2-yl)phenyl)carbamoyl)-3-(trifluoromethyl)pyrrolidine-3-carboxylate], the IC50 under setting [1] fell in the range of 1 to 5 µM and the IC50 under setting [2] was 1 to 5 µM.

As to `CNC(=O)C1(C)CCN(C(=O)Nc2cccc([C@H](C)Cc3nncn3C)c2)C1` (stereo partly drawn) [Example 12, N^3,3-dimethyl-N′-(3-((R)-1-(4-methyl-4H-1,2,4-triazol-3-yl)propan-2-yl)phenyl)pyrrolidine-1,3-dicarboxamide], the IC50 runs as follows: under setting [1], at least 5 µM; under setting [2], at least 5 µM.

With `Cc1cccc2c1CN(C(=O)Nc1cccc([C@H](C)Cc3nncn3C)c1)C2` [Example 13, (R)-4-methyl-N-(3-(1-(4-methyl-4H-1,2,4-triazol-3-yl)propan-2-yl)phenyl)isoindoline-2-carboxamide], the IC50 runs as follows: under setting [1], 0.1 to 1 µM; under setting [2], 0.1 to 1 µM.

Turning to `C[C@H](Cc1nncn1C)c1ccnc(C(=O)Nc2cccc(C(F)(F)F)n2)c1` [Example 14, 4-[(2R)-1-(4-methyl-4H-1,2,4-triazol-3-yl)propan-2-yl]-N-[6-(trifluoromethyl)pyridin-2-yl]pyridine-2-carboxamide], the IC50 reads like this: under setting [1], 0.1 to 1 µM; under setting [2], 0.1 to 1 µM.

For `C[C@H](Cc1nncn1C)c1cccc(NC(=O)N2CCC(C(=O)O)(C(F)(F)F)C2)c1` (stereo partly drawn) [Example 15, 1-((3-((R)-1-(4-methyl-4H-1,2,4-triazol-3-yl)propan-2-yl)phenyl)carbamoyl)-3-(trifluoromethyl)pyrrolidine-3-carboxylic acid], the IC50 under setting [1] fell in the range of 1 to 5 µM and the IC50 under setting [2] was in the range of 1 to 5 µM.

`C[C@H](Cc1nncn1C)c1cccc(NC(=O)N2CCc3cccnc32)c1` [Example 16, (R)—N-(3-(1-(4-methyl-4H-1,2,4-triazol-3-yl)propan-2-yl)phenyl)-2,3-dihydro-1H-pyrrolo[2,3-b]pyridine-1-carboxamide]: the IC50 under setting [1] was 0.1 to 1 µM and the IC50 under setting [2] is 0.1 to 1 µM.

`C[C@H](Cc1nncn1C)c1cccc(C(=O)Nc2cccc(C(F)(F)F)n2)c1` [Example 18, (R)-3-(1-(4-methyl-4H-1,2,4-triazol-3-yl)propan-2-yl)-N-(6-(trifluoromethyl)pyridin-2-yl)benzamide]: the IC50 was at least 5 µM under setting [1] and at least 5 µM under setting [2].

On to `C[C@H](Cc1nncn1C)c1cccc(NC(=O)N2CC(C)(C)Oc3cccnc32)c1` [Example 19, (R)-2,2-dimethyl-N-(3-(1-(4-methyl-4H-1,2,4-triazol-3-yl)propan-2-yl)phenyl)-2,3-dihydro-4H-pyrido[3,2-b][1,4]oxazine-4-carboxamide], for which the IC50 runs as follows: under setting [1], under 0.1 µM; under setting [2], under 0.1 µM.

For the compound `CNC(=O)C1(C(F)(F)F)CCN(C(=O)Nc2cccc([C@H](C)Cc3nncn3C)c2)C1` (stereo partly drawn) [Example 20, N^3-methyl-N^1-(3-((R)-1-(4-methyl-4H-1,2,4-triazol-3-yl)propan-2-yl)phenyl)-3-(trifluoromethyl)pyrrolidine-1,3-dicarboxamide], under setting [2], the IC50 was in the range of 0.1 to 1 µM.

As to `C[C@H](Cc1nncn1C)c1cccc(NC(=O)N2CCOc3cc(Br)cnc32)c1` [Example 21, (R)-7-bromo-N-(3-(1-(4-methyl-4H-1,2,4-triazol-3-yl)propan-2-yl)phenyl)-2,3-dihydro-4H-pyrido[3,2-b][1,4]oxazine-4-carboxamide], the IC50 under setting [2] fell in the range of 0.1 to 1 µM.

On to `C[C@H](Cc1nncn1C)c1cccc(NC(=O)N2CC(C)(C)c3cccnc32)c1` [Example 22, (R)-3,3-dimethyl-N-(3-(1-(4-methyl-4H-1,2,4-triazol-3-yl)propan-2-yl)phenyl)-2,3-dihydro-1H-pyrrolo[2,3-b]pyridine-1-carboxamide], for which, under setting [2], the IC50 lay in the range of 0.1 to 1 µM.

As for `Cn1cnnc1CC1(c2cccc(NC(=O)N3CCOc4cccnc43)c2)COC1` [Example 23, N-(3-(3-((4-methyl-4H-1,2,4-triazol-3-yl)methyl)oxetan-3-yl)phenyl)-2,3-dihydro-4H-pyrido[3,2-b][1,4]oxazine-4-carboxamide], under setting [2], the IC50 lay in the range of 0.1 to 1 µM.
